# Patent US20260035384A1, “COMPOUND CONTAINING CYCLOHEXYL” (CHIA TAI TIANQING PHARMACEUTICAL GROUP CO., LTD., priority 2022, published 2026)
# Test system: VCaP cells
# Assay: Assay on inhibitory activity for VCaP cell proliferation (CCK-8)
# Format: cell-based
# Conditions: 168 h incubation
# Protocol: (§1) 2.1 Assay on inhibitory activity for VCaP cell proliferation VCaP cells in a good growth state were taken, washed with PBS, digested with pancreatin, and added with 5% CSS—FBS phenol red-free DMEM complete medium to terminate the digestion. The cells were collected by using a centrifuge tube, adjusted to a cell density of 1×10^5 cells/mL, and seeded in a 96-well plate (100 μL/well). Meanwhile, compounds were added using a nanoliter pipettor such that the final concentrations of the compounds were 10000 nM-0.61 nM. Two duplicate wells were set for each concentration, and meanwhile, a control was set. After another 168 h of incubation in the cell incubator, the detection reagent CCK-8 (manufacturer: Dojindo, 10 μL/well) was added.
row,Compound,IC50 [µM]
1,N#Cc1ccc(O[C@H]2CC[C@H](NC(=O)c3cnc(C4CCN(C5CN(CC6Cc7ccc8c(C9CCC(=O)NC9=O)coc8c7C6)C5)CC4)nc3)CC2)cc1Cl (stereo partly drawn) [Compound 112],< 1
2,N#Cc1ccc(O[C@H]2CC[C@H](NC(=O)c3cnc(N4CCN(CC5Cc6ccc7c(C8CCC(=O)NC8=O)noc7c6C5)CC4)nc3)CC2)cc1Cl (stereo partly drawn) [Compound 124],< 1

# Same assay, conditions: Homo sapiens, 168 h incubation
row,Compound,IC50 [µM]
1,CN(c1ccc(C#N)c(Cl)c1)[C@H]1CC[C@H](NC(=O)c2ccc(N3CCC(CN4CCc5ccc6c(C7CCC(=O)NC7=O)noc6c5CC4)CC3)cc2)CC1 (stereo partly drawn) [Compound 59],< 0.01

# Same assay, conditions: Homo sapiens, VCaP, 168 h, 168 h incubation
row,Compound,IC50 [µM]
1,N#Cc1ccc(O[C@H]2CC[C@H](NC(=O)c3cnc(N4CCC(N5CC(CN6Cc7ccc8c(C9CCC(=O)NC9=O)coc8c7C6)C5)CC4)nc3)CC2)cc1Cl (stereo partly drawn) [Compound 103],< 0.01
2,N#Cc1ccc(O[C@H]2CC[C@H](NC(=O)c3ccc(N4CCC(CN5CCC(n6ccc7c8c(C9CCC(=O)NC9=O)noc8ccc76)CC5)CC4)nn3)CC2)cc1Cl (stereo partly drawn) [Compound 41],< 0.01
3,N#Cc1ccc(O[C@H]2CC[C@H](NC(=O)c3cnc(N4CCC(CN5CCc6c(ccc7c(C8CCC(=O)NC8=O)noc67)C5)CC4)nc3)CC2)cc1Cl (stereo partly drawn) [Compound 121],< 0.01
4,N#Cc1ccc(O[C@H]2CC[C@H](NC(=O)c3cnc(N4CC(CN5CCc6c(ccc7c(C8CCC(=O)NC8=O)noc67)C5)C4)nc3)CC2)cc1Cl (stereo partly drawn) [Compound 142],< 1
5,N#Cc1ccc(O[C@H]2CC[C@H](NC(=O)c3ccc(C4CCN(C5CC(n6ncc7c8c(C9CCC(=O)NC9=O)noc8ccc76)C5)CC4)nn3)CC2)cc1Cl (stereo partly drawn) [Compound 46],< 0.01
6,N#Cc1ccc(O[C@H]2CC[C@H](NC(=O)c3cnc(C4=CCN(CC5Cc6ccc7c(C8CCC(=O)NC8=O)noc7c6C5)CC4)nc3)CC2)cc1Cl (stereo partly drawn) [Compound 127],< 0.1
7,CN(c1ccc(C#N)c(Cl)c1)[C@H]1CC[C@H](NC(=O)c2cnc(N3CC(CN4CCc5c(ccc6c(C7CCC(=O)NC7=O)noc56)C4)C3)nc2)CC1 (stereo partly drawn) [Compound 114],< 0.1
8,N#Cc1ccc(O[C@H]2CC[C@H](NC(=O)c3cnc(N4CCC5(CC4)CC(CN4Cc6ccc7c(C8CCC(=O)NC8=O)noc7c6C4)C5)nc3)CC2)cc1Cl (stereo partly drawn) [Compound 128],< 0.1
9,CN(c1ccc(C#N)c(Cl)c1)[C@H]1CC[C@H](NC(=O)c2ccc(C3CCN(CC4Cc5ccc6c(C7CCC(=O)NC7=O)noc6c5C4)CC3)cc2)CC1 (stereo partly drawn) [Compound 68],< 0.01
10,N#Cc1ccc(O[C@H]2CC[C@H](NC(=O)c3cnc(N4CCN(CC5Cc6ccc7c(C8CCC(=O)NC8=O)noc7c6C5)CC4)nc3)CC2)cc1Cl (stereo partly drawn) [Compound 123],< 1
11,CN(c1ccc(C#N)c(Cl)c1)[C@H]1CC[C@H](NC(=O)c2cnc(N3CCC(CN4Cc5ccc6c(C7CCC(=O)NC7=O)noc6c5C4)CC3)nc2)CC1 (stereo partly drawn) [Compound 115],< 1
12,N#Cc1ccc(O[C@H]2CC[C@H](NC(=O)c3cnc(N4CCC(CN5CCc6ccc7c(C8CCC(=O)NC8=O)coc7c6C5)CC4)nc3)CC2)cc1Cl (stereo partly drawn) [Compound 133],< 1
13,N#Cc1ccc(O[C@H]2CC[C@H](NC(=O)c3ccc(N4CCC(N5CC(CN6Cc7cc8onc(C9CCC(=O)NC9=O)c8cc7C6)C5)CC4)nn3)CC2)cc1Cl (stereo partly drawn) [Compound 101],< 0.01
14,N#Cc1ccc(O[C@H]2CC[C@H](NC(=O)c3cnc(N4CCC(N5CC(CN6CCc7ccc8c(C9CCC(=O)NC9=O)coc8c7CC6)C5)CC4)nc3)CC2)cc1Cl (stereo partly drawn) [Compound 106],< 0.1
15,N#Cc1ccc(O[C@H]2CC[C@H](NC(=O)c3cnc(N4CCC(N5CC(CN6CCc7ccc8c(C9CCC(=O)NC9=O)coc8c7C6)C5)CC4)nc3)CC2)cc1Cl (stereo partly drawn) [Compound 104],< 0.01
16,N#Cc1ccc(O[C@H]2CC[C@H](NC(=O)c3cnc(C4CCN(CC5Cc6ccc7c(C8CCC(=O)NC8=O)noc7c6C5)CC4)nc3)CC2)cc1Cl (stereo partly drawn) [Compound 125],< 1
17,N#Cc1ccc(O[C@H]2CC[C@H](NC(=O)c3ccc(N4CCC(CN5CC(n6ncc7c8c(C9CCC(=O)NC9=O)noc8ccc76)C5)CC4)nn3)CC2)cc1Cl (stereo partly drawn) [Compound 42],< 0.01
18,N#Cc1ccc(O[C@H]2CC[C@H](NC(=O)c3cnc(N4CCC(N5CC(CN6CCc7c(ccc8c(C9CCC(=O)NC9=O)coc78)C6)C5)CC4)nc3)CC2)cc1Cl (stereo partly drawn) [Compound 105],< 0.01

# Test system: LNCaP cells
# Assay: Assay on inhibitory activity for LNCaP cell proliferation (CCK-8)
# Format: cell-based
# Conditions: 168 h incubation
# Protocol: as §1, with “LNCaP” for “2.1 Assay on inhibitory activity for VCaP cell proliferation VCaP”, “2%” for “5%”, “1640” for “DMEM”
row,Compound,IC50 [µM]
1,N#Cc1ccc(O[C@H]2CC[C@H](NC(=O)c3cnc(C4CCN(C5CN(CC6Cc7ccc8c(C9CCC(=O)NC9=O)coc8c7C6)C5)CC4)nc3)CC2)cc1Cl (stereo partly drawn) [Compound 112],< 1
2,N#Cc1ccc(O[C@H]2CC[C@H](NC(=O)c3ccc(C4CCN(CC5Cc6ccc7c(C8CCC(=O)NC8=O)coc7c6C5)CC4)nn3)CC2)cc1Cl (stereo partly drawn) [Compound 33],< 1
3,N#Cc1ccc(O[C@H]2CC[C@H](NC(=O)c3ccc(C4CCN(CC5Cc6ccc7c(C8CCC(=O)NC8=O)noc7c6C5)CC4)nn3)CC2)cc1Cl (stereo partly drawn) [Compound 31],< 1

# Same assay, conditions: Homo sapiens, 168 h incubation
row,Compound,IC50 [µM]
1,N#Cc1ccc(O[C@H]2CC[C@H](NC(=O)c3ccc(N4CCC(N5CC(n6ncc7c8c(C9CCC(=O)NC9=O)noc8ccc76)C5)CC4)nn3)CC2)cc1Cl (stereo partly drawn) [Compound 43],< 1
2,N#Cc1ccc(O[C@H]2CC[C@H](NC(=O)c3cnc(N4CC[C@H](CN5CCc6c(ccc7c(C8CCC(=O)NC8=O)noc67)C5)C4)nc3)CC2)cc1Cl (stereo partly drawn) [Compound 143],< 1
3,N#Cc1ccc(O[C@H]2CC[C@H](NC(=O)c3ccc(N4CCC(N5CC(n6ccc7c8c(C9CCC(=O)NC9=O)noc8ccc76)C5)CC4)nn3)CC2)cc1Cl (stereo partly drawn) [Compound 39],< 1
4,N#Cc1ccc(O[C@H]2CC[C@H](NC(=O)c3ccc(C4CCN([C@H]5C[C@@H](n6ccc7c8c(C9CCC(=O)NC9=O)noc8ccc76)C5)CC4)nn3)CC2)cc1Cl (stereo partly drawn) [Compound 49],< 1
5,N#Cc1ccc(O[C@H]2CC[C@H](NC(=O)c3ccc(N4CCC(CN5CCC(n6ccc7c8c(C9CCC(=O)NC9=O)noc8ccc76)CC5)CC4)nn3)CC2)cc1Cl (stereo partly drawn) [Compound 41],< 1
6,N#Cc1ccc(O[C@H]2CC[C@H](NC(=O)c3ccc(C4CCN([C@H]5C[C@H](n6ccc7c8c(C9CCC(=O)NC9=O)noc8ccc76)C5)CC4)nn3)CC2)cc1Cl (stereo partly drawn) [Compound 50],< 1
7,N#Cc1ccc(O[C@H]2CC[C@H](NC(=O)c3ccc(C4CCN(CC5Cc6ccc7c(C8CCC(=O)NC8=O)coc7c6C5)CC4)nn3)CC2)cc1Cl (stereo partly drawn) [Compound 32],< 1
8,N#Cc1ccc(O[C@H]2CC[C@H](NC(=O)c3cnc(N4CCC(CN5CCc6c(ccc7c(C8CCC(=O)NC8=O)noc67)C5)CC4)nc3)CC2)cc1Cl (stereo partly drawn) [Compound 121],< 1
9,N#Cc1ccc(O[C@H]2CC[C@H](NC(=O)c3cnc(N4CC(CN5CCc6c(ccc7c(C8CCC(=O)NC8=O)noc67)C5)C4)nc3)CC2)cc1Cl (stereo partly drawn) [Compound 142],< 1
10,N#Cc1ccc(O[C@H]2CC[C@H](NC(=O)c3ccc(C4CCN([C@H]5CC[C@H](n6ccc7c8c(C9CCC(=O)NC9=O)noc8ccc76)CC5)CC4)nn3)CC2)cc1Cl (stereo partly drawn) [Compound 55],< 1
11,N#Cc1ccc(O[C@H]2CC[C@H](NC(=O)c3ccc(N4CCC(CN5Cc6cc7onc(C8CCC(=O)NC8=O)c7cc6C5)CC4)nn3)CC2)cc1Cl (stereo partly drawn) [Compound 100],< 1
12,N#Cc1ccc(O[C@H]2CC[C@H](NC(=O)c3cnc(N4CCC(CN5Cc6ccc7c(N8CCC(=O)NC8=O)coc7c6C5)CC4)nc3)CC2)cc1Cl [Compound 138],< 1
13,N#Cc1ccc(O[C@H]2CC[C@H](NC(=O)c3ccc(C4CCN(C5CC(n6ncc7c8c(C9CCC(=O)NC9=O)noc8ccc76)C5)CC4)nn3)CC2)cc1Cl (stereo partly drawn) [Compound 46],< 1
14,"N#Cc1ccc(O[C@H]2CC[C@H](NC(=O)c3ccc(C4CCN(C[C@H]5C[C@H](n6ccc7c8c(C9CCC(=O)NC9=O)noc8ccc76)C5)CC4)nn3)CC2)cc1Cl (single isomer, unassigned) [Compound 52]",< 1
15,CN(c1ccc(C#N)c(Cl)c1)[C@H]1CC[C@H](NC(=O)c2cnc(N3CC(CN4CCc5c(ccc6c(C7CCC(=O)NC7=O)noc56)C4)C3)nc2)CC1 (stereo partly drawn) [Compound 114],< 1
16,N#Cc1ccc(O[C@H]2CC[C@H](NC(=O)c3cnc(N4CCC5(CC4)CC(CN4Cc6ccc7c(C8CCC(=O)NC8=O)noc7c6C4)C5)nc3)CC2)cc1Cl (stereo partly drawn) [Compound 128],< 1
17,N#Cc1ccc(O[C@H]2CC[C@H](NC(=O)c3cnc(N4CCN(CC5Cc6ccc7c(C8CCC(=O)NC8=O)noc7c6C5)CC4)nc3)CC2)cc1Cl (stereo partly drawn) [Compound 123],< 1
18,N#Cc1ccc(O[C@H]2CC[C@H](NC(=O)c3cnc(N4CCC(CN5CCc6ccc7c(C8CCC(=O)NC8=O)coc7c6C5)CC4)nc3)CC2)cc1Cl (stereo partly drawn) [Compound 133],< 1
19,N#Cc1ccc(O[C@H]2CC[C@H](NC(=O)c3cnc(N4CC[C@@H](CN5CCc6c(ccc7c(C8CCC(=O)NC8=O)noc67)C5)C4)nc3)CC2)cc1Cl (stereo partly drawn) [Compound 144],< 1
20,CN(c1ccc(C#N)c(Cl)c1)[C@H]1CC[C@H](NC(=O)c2cnc(N3CCC(CN4CCc5ccc6c(C7CCC(=O)NC7=O)noc6c5C4)CC3)nc2)CC1 (stereo partly drawn) [Compound 116],< 1
21,N#Cc1ccc(O[C@H]2CC[C@H](NC(=O)c3ccc(N4CCC(N5CCc6ccc7c(C8CCC(=O)NC8=O)noc7c6CC5)CC4)nn3)CC2)cc1Cl (stereo partly drawn) [Compound 23],< 1
22,N#Cc1ccc(O[C@H]2CC[C@H](NC(=O)c3ccc(C4CCN(CC5Cc6ccc7c(C8CCC(=O)NC8=O)noc7c6C5)CC4)nn3)CC2)cc1Cl (stereo partly drawn) [Compound 30],< 1
23,"N#Cc1ccc(O[C@H]2CC[C@H](NC(=O)c3ccc(C4CCN(C[C@H]5C[C@@H](n6ccc7c8c(C9CCC(=O)NC9=O)noc8ccc76)C5)CC4)nn3)CC2)cc1Cl (single isomer, unassigned) [Compound 51]",< 1
24,N#Cc1ccc(O[C@H]2CC[C@H](NC(=O)c3cnc(N4CCC(CN5CCc6ccc7c(C8CCC(=O)NC8=O)coc7c6CC5)CC4)nc3)CC2)cc1Cl (stereo partly drawn) [Compound 135],< 1
25,N#Cc1ccc(O[C@H]2CC[C@H](NC(=O)c3cnc(N4CCC(CN5CCc6ccc7c(N8CCC(=O)NC8=O)coc7c6CC5)CC4)nc3)CC2)cc1Cl [Compound 141],< 1
26,N#Cc1ccc(O[C@H]2CC[C@H](NC(=O)c3ccc(N4CCC(CN5CC(n6ccc7c8c(C9CCC(=O)NC9=O)noc8ccc76)C5)CC4)nn3)CC2)cc1Cl (stereo partly drawn) [Compound 38],< 1
27,N#Cc1ccc(O[C@H]2CC[C@H](NC(=O)c3ccc(C4CCN([C@H]5CC[C@@H](n6ccc7c8c(C9CCC(=O)NC9=O)noc8ccc76)CC5)CC4)nn3)CC2)cc1Cl (stereo partly drawn) [Compound 54],< 1
28,N#Cc1ccc(O[C@H]2CC[C@H](NC(=O)c3ccc(N4CCC(CN5CC(n6cc7c(ccc8onc(C9CCC(=O)NC9=O)c87)n6)C5)CC4)nn3)CC2)cc1Cl (stereo partly drawn) [Compound 44],< 1
29,N#Cc1ccc(O[C@H]2CC[C@H](NC(=O)c3ccc(N4CCC(N5CCC(n6ccc7c8c(C9CCC(=O)NC9=O)noc8ccc76)CC5)CC4)nn3)CC2)cc1Cl (stereo partly drawn) [Compound 40],< 1
30,N#Cc1ccc(O[C@H]2CC[C@H](NC(=O)c3ccc(N4CCN(CC5Cc6cc(C7CCC(=O)NC7=O)c7ccoc7c6C5)CC4)nn3)CC2)cc1Cl (stereo partly drawn) [Compound 29],< 1
